From the NIST ThermoML archive (doi:10.1016/j.jct.2007.09.009)
± gives the expanded uncertainty stated by the source.

What was measured:
[1] = 298.15 K; 101.33 kPa; Liquid; Pycnometric method
[2] = refractive index (Na D-line) (dimensionless); conditions: 298.15 K; 101.33 kPa; Liquid; Standard Abbe refractometry
[3] = xn = mol fraction of the nth substance listed; conditions: 313.15 K, 101 kPa, Liquid, Direct dilatometry

CC(=O)N(C)C [N,N-dimethylethanamide]
Conditions | mass density [kg/m3] | refractive index
[1] | 922.4 ± 0.9 | –
[2] | – | 1.43556 ± 0.0007

CC(=O)N(C)C [N,N-dimethylethanamide] + CCO
[3]
Conditions | excess molar volume [m3/mol]
x1 = 0.0259 | -3.74e-08 ± 3e-09
x1 = 0.0456 | -6.13e-08 ± 3.1e-09
x1 = 0.0769 | -9.86e-08 ± 3.1e-09
x1 = 0.103 | -1.237e-07 ± 3.1e-09
x1 = 0.1481 | -1.61e-07 ± 3.2e-09
x1 = 0.1765 | -1.787e-07 ± 3.2e-09
x1 = 0.2149 | -1.991e-07 ± 3.2e-09
x1 = 0.2587 | -2.157e-07 ± 3.2e-09
x1 = 0.2846 | -2.228e-07 ± 3.2e-09
x1 = 0.3094 | -2.282e-07 ± 3.2e-09
x1 = 0.3288 | -2.315e-07 ± 3.2e-09
x1 = 0.3513 | -2.338e-07 ± 3.2e-09
x1 = 0.3784 | -2.352e-07 ± 3.2e-09
x1 = 0.3866 | -2.374e-07 ± 3.2e-09
x1 = 0.4014 | -2.353e-07 ± 3.2e-09
x1 = 0.4131 | -2.373e-07 ± 3.2e-09
x1 = 0.4396 | -2.356e-07 ± 3.2e-09
x1 = 0.4661 | -2.327e-07 ± 3.2e-09
x1 = 0.4937 | -2.292e-07 ± 3.2e-09
x1 = 0.5249 | -2.227e-07 ± 3.2e-09
x1 = 0.5532 | -2.161e-07 ± 3.2e-09
x1 = 0.5913 | -2.059e-07 ± 3.2e-09
x1 = 0.6379 | -1.906e-07 ± 3.2e-09
x1 = 0.6743 | -1.761e-07 ± 3.2e-09
x1 = 0.7191 | -1.593e-07 ± 3.2e-09
x1 = 0.7691 | -1.359e-07 ± 3.1e-09
x1 = 0.8211 | -1.109e-07 ± 3.1e-09
x1 = 0.8768 | -7.86e-08 ± 3.1e-09
x1 = 0.9287 | -4.6e-08 ± 3e-09
x1 = 0.962 | -2.56e-08 ± 3e-09

CC(=O)N(C)C [N,N-dimethylethanamide] + CO
[3]
Conditions | excess molar volume [m3/mol]
x1 = 0.0166 | -5.83e-08 ± 3.1e-09
x1 = 0.0295 | -9.34e-08 ± 3.1e-09
x1 = 0.0344 | -1.106e-07 ± 3.2e-09
x1 = 0.0508 | -1.501e-07 ± 3.2e-09
x1 = 0.0623 | -1.832e-07 ± 3.2e-09
x1 = 0.0717 | -2.034e-07 ± 3.2e-09
x1 = 0.0953 | -2.561e-07 ± 3.3e-09
x1 = 0.0979 | -2.653e-07 ± 3.3e-09
x1 = 0.1263 | -3.178e-07 ± 3.3e-09
x1 = 0.1366 | -3.395e-07 ± 3.4e-09
x1 = 0.169 | -3.878e-07 ± 3.4e-09
x1 = 0.1692 | -3.91e-07 ± 3.4e-09
x1 = 0.1997 | -4.315e-07 ± 3.4e-09
x1 = 0.2025 | -4.324e-07 ± 3.4e-09
x1 = 0.228 | -4.611e-07 ± 3.5e-09
x1 = 0.2317 | -4.661e-07 ± 3.5e-09
x1 = 0.2533 | -4.845e-07 ± 3.5e-09
x1 = 0.2599 | -4.913e-07 ± 3.5e-09
x1 = 0.2804 | -5.069e-07 ± 3.5e-09
x1 = 0.2837 | -5.077e-07 ± 3.5e-09
x1 = 0.3079 | -5.225e-07 ± 3.6e-09
x1 = 0.308 | -5.222e-07 ± 3.6e-09
x1 = 0.3093 | -5.264e-07 ± 3.6e-09
x1 = 0.3243 | -5.305e-07 ± 3.5e-09
x1 = 0.3406 | -5.399e-07 ± 3.5e-09
x1 = 0.3748 | -5.488e-07 ± 3.5e-09
x1 = 0.4031 | -5.518e-07 ± 3.6e-09
x1 = 0.4372 | -5.508e-07 ± 3.6e-09
x1 = 0.4807 | -5.416e-07 ± 3.5e-09
x1 = 0.5265 | -5.238e-07 ± 3.5e-09
x1 = 0.5817 | -4.921e-07 ± 3.5e-09
x1 = 0.5988 | -4.766e-07 ± 3.5e-09
x1 = 0.6131 | -4.66e-07 ± 3.5e-09
x1 = 0.6318 | -4.516e-07 ± 3.5e-09
x1 = 0.6362 | -4.516e-07 ± 3.5e-09
x1 = 0.6489 | -4.37e-07 ± 3.4e-09
x1 = 0.6633 | -4.244e-07 ± 3.4e-09
x1 = 0.6702 | -4.188e-07 ± 3.4e-09
x1 = 0.6938 | -3.98e-07 ± 3.4e-09
x1 = 0.6957 | -3.938e-07 ± 3.4e-09
x1 = 0.6975 | -3.923e-07 ± 3.4e-09
x1 = 0.7225 | -3.669e-07 ± 3.4e-09
x1 = 0.7286 | -3.606e-07 ± 3.4e-09
x1 = 0.7471 | -3.413e-07 ± 3.3e-09
x1 = 0.752 | -3.354e-07 ± 3.3e-09
x1 = 0.7584 | -3.295e-07 ± 3.3e-09
x1 = 0.7813 | -3.022e-07 ± 3.3e-09
x1 = 0.7951 | -2.867e-07 ± 3.3e-09
x1 = 0.8055 | -2.731e-07 ± 3.3e-09
x1 = 0.8278 | -2.456e-07 ± 3.2e-09
x1 = 0.83 | -2.444e-07 ± 3.2e-09
x1 = 0.8417 | -2.295e-07 ± 3.2e-09
x1 = 0.8584 | -2.065e-07 ± 3.2e-09
x1 = 0.8746 | -1.858e-07 ± 3.2e-09
x1 = 0.8862 | -1.705e-07 ± 3.2e-09
x1 = 0.9051 | -1.481e-07 ± 3.2e-09
x1 = 0.9081 | -1.406e-07 ± 3.2e-09
x1 = 0.9134 | -1.337e-07 ± 3.1e-09
x1 = 0.9384 | -9.87e-08 ± 3.1e-09
x1 = 0.943 | -9.15e-08 ± 3.1e-09
x1 = 0.9698 | -5.42e-08 ± 3.1e-09
x1 = 0.9711 | -5.33e-08 ± 3.1e-09

CCO [ethanol]
Conditions | mass density [kg/m3] | refractive index
[1] | 772.2 ± 3.4 | –
[2] | – | 1.3592 ± 0.0012

CO [methanol]
Conditions | mass density [kg/m3] | refractive index
[1] | 772.2 ± 3.4 | –
[2] | – | 1.32645 ± 0.0012
